According to ChEMBL document CHEMBL5291721, “A preclinical secondary pharmacology resource illuminates target-adverse drug reaction associations of marketed drugs” (Nat Commun, 2023):

Legend:
Adenosine receptor A2a = Adenosine receptor A2a (Homo sapiens, UniProt P29274)
[1] = target: T1, Prostaglandin G/H synthase 1 (Rattus norvegicus, UniProt Q63921); assay type: functional
T1 sequence (Q63921 whole entry): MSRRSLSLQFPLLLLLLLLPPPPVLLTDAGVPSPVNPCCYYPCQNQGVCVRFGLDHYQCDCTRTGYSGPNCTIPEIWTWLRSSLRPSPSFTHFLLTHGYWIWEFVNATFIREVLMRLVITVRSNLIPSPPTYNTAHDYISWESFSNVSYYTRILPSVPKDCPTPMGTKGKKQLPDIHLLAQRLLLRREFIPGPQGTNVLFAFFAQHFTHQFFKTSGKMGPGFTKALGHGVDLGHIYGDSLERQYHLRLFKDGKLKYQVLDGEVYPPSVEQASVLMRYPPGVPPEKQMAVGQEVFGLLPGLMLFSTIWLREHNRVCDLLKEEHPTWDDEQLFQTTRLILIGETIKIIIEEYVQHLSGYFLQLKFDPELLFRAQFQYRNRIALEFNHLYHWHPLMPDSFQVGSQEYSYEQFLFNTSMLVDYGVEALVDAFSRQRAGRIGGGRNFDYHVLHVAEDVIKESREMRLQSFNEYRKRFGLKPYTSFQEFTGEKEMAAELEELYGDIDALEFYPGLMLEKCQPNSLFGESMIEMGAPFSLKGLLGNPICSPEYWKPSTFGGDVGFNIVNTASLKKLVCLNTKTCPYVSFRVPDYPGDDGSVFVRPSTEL

[2] = target: T2, Amine oxidase [flavin-containing] A (Homo sapiens, UniProt P21397); assay type: functional
T2 sequence (P21397 whole entry): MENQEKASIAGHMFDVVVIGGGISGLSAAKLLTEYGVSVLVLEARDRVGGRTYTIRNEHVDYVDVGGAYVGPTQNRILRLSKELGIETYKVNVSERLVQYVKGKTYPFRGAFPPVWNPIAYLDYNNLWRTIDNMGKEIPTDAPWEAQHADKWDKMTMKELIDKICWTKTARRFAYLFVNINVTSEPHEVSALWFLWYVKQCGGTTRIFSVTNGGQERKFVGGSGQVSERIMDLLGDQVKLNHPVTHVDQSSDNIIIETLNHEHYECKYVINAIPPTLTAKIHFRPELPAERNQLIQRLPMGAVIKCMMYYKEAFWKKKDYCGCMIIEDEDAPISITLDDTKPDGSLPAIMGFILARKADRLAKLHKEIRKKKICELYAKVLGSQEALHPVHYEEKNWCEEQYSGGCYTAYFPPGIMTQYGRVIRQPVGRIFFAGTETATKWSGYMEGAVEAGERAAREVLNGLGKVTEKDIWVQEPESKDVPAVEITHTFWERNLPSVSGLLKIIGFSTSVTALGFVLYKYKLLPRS

[3] = target: 5-hydroxytryptamine receptor 2A (Homo sapiens, UniProt P28223); assay type: functional, cell-based
Sequence of 5-hydroxytryptamine receptor 2A (P28223 whole entry): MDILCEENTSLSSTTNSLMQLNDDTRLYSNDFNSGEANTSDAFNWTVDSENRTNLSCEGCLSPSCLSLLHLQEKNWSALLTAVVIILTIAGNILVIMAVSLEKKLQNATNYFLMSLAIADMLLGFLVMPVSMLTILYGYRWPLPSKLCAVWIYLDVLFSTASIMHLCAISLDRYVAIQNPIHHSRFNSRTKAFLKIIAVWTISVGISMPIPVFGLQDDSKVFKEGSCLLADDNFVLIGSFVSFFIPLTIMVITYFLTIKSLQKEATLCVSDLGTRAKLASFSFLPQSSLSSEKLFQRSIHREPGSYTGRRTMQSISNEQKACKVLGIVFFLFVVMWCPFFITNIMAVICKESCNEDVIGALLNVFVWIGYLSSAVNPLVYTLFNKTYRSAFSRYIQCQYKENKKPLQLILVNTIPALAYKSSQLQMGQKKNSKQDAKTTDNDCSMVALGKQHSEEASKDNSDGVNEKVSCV

[4] = target: Voltage-gated inwardly rectifying potassium channel KCNH2 (Homo sapiens, UniProt Q12809); assay type: functional
Sequence of Voltage-gated inwardly rectifying potassium channel KCNH2 (Q12809 whole entry): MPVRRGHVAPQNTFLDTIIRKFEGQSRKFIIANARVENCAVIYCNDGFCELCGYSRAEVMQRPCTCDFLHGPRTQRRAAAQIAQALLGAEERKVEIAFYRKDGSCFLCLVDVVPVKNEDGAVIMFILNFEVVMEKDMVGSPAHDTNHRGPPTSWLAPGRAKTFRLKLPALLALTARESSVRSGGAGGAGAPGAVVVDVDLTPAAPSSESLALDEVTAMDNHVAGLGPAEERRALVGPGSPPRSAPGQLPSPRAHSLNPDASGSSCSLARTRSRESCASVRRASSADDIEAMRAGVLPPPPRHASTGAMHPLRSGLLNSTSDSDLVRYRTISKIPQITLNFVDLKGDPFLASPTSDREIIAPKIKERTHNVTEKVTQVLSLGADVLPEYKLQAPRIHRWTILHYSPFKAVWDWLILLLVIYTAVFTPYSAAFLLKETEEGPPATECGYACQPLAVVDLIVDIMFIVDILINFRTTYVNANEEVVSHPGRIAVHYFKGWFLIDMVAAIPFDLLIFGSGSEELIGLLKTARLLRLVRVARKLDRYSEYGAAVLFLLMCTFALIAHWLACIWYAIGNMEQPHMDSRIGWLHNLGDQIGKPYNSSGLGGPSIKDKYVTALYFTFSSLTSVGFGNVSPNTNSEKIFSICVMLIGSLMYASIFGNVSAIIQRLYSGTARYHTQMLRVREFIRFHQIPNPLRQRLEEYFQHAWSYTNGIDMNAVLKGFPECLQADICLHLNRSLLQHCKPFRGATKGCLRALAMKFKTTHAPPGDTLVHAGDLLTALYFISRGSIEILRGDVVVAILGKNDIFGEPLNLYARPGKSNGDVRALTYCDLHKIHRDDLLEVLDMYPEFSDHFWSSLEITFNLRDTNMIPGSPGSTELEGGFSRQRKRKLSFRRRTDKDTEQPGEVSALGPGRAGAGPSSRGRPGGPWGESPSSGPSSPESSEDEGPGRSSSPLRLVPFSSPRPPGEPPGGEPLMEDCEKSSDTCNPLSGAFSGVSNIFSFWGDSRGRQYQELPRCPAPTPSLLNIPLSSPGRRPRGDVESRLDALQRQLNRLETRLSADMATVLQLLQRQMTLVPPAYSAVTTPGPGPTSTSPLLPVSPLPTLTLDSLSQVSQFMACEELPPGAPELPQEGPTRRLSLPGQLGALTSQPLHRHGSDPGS

D(1A) dopamine receptor = D(1A) dopamine receptor (Homo sapiens, UniProt P21728); assay type: functional, cell-based
Sequence of D(1A) dopamine receptor (P21728 whole entry): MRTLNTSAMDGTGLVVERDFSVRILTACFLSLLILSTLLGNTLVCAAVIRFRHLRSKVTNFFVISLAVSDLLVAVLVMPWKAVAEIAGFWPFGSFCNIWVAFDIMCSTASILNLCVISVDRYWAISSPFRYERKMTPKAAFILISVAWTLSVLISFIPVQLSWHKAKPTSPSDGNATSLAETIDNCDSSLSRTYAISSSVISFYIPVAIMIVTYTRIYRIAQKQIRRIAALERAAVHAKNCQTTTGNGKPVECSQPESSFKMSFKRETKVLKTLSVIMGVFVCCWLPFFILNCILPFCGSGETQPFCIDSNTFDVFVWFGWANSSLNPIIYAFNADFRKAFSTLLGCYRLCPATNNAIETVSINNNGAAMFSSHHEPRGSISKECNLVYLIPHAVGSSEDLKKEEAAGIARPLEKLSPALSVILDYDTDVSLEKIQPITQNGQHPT

Progesterone receptor = target: T3, Progesterone receptor (Homo sapiens, UniProt P06401); assay type: functional
T3 sequence (P06401 whole entry): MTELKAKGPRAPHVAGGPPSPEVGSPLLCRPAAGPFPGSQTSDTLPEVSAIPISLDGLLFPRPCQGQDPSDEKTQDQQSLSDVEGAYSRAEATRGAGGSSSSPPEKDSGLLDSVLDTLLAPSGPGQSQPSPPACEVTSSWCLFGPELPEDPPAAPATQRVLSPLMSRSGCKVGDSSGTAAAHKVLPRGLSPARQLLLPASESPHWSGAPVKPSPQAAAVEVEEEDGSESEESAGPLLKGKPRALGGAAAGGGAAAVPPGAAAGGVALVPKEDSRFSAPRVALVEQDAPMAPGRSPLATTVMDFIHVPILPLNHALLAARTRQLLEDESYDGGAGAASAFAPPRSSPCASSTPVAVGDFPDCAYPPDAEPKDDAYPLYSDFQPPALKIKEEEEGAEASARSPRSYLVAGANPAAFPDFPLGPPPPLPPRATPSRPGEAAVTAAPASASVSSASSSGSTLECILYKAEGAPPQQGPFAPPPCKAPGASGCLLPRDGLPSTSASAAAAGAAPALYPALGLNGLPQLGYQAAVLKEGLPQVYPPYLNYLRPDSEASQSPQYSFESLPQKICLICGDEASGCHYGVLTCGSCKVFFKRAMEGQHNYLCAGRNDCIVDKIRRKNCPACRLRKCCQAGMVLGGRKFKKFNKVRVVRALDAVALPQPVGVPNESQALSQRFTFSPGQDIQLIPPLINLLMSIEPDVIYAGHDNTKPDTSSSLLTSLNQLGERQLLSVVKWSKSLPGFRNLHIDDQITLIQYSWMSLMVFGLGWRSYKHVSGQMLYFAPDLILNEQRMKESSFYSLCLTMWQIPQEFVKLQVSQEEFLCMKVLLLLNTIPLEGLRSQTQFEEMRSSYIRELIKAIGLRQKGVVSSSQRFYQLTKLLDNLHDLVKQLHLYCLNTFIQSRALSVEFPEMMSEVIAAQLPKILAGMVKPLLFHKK

[5] = target: Beta-2 adrenergic receptor (Homo sapiens, UniProt P07550)
[6] = target: T4, Muscarinic acetylcholine receptor M2 (Homo sapiens, UniProt P08172); assay type: functional, cell-based
T4 sequence (P08172 whole entry): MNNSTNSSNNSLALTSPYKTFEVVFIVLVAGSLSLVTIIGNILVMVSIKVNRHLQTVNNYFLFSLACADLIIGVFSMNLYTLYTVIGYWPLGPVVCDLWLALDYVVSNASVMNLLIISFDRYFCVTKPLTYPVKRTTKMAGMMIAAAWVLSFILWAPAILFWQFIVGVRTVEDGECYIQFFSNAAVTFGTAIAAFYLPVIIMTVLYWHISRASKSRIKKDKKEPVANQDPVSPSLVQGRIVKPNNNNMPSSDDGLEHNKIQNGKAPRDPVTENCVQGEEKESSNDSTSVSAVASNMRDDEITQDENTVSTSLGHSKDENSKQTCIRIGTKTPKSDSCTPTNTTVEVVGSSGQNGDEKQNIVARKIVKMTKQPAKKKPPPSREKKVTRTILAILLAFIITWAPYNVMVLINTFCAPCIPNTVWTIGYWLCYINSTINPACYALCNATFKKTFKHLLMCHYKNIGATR
Also: assay procedure not described here.

Sequence of Adenosine receptor A2a (P29274 whole entry): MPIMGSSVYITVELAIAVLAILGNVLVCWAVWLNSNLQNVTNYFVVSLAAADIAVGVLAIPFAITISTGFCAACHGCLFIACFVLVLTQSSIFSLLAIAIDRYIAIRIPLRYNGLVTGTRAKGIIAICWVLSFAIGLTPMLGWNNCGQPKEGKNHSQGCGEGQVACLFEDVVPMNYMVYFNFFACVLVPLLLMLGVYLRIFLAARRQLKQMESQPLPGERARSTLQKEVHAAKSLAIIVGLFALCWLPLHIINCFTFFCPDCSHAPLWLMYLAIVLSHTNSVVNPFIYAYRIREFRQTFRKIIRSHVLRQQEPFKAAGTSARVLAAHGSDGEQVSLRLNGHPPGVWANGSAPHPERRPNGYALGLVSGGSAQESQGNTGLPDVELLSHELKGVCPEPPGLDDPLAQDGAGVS

Molecule | AC50 (Adenosine receptor A2a) [µM] | AC50 [1] [µM] | AC50 [2] [µM] | AC50 [3] [µM] | AC50 ([4]; read-out: AC50) [µM] | AC50 (D(1A) dopamine receptor) [µM] | AC50 (Progesterone receptor) [µM] | AC50 [5] [µM] | AC50 [6] [µM] | AC50 ([4]; human, cellular components) [µM]
O=C(OCCN1CCOCC1)c1cccnc1Nc1cccc(C(F)(F)F)c1 [MORNIFLUMATE] | > 30 | > 30 | > 30 | 2.9 | 4.35 | > 30 | > 30 | > 30 | > 30 | –
COc1ccc(C(=O)NCc2ccc(OCCN(C)C)cc2)cc1OC [ITOPRIDE] | > 30 | > 10 | > 30 | > 30 | > 30 | > 30 | > 30 | > 30 | > 30 | –
O=C(CCCCC(=O)Nc1c(I)cc(I)c(C(=O)O)c1I)Nc1c(I)cc(I)c(C(=O)O)c1I [IODIPAMIDE] | > 10 | > 10 | > 10 | > 10 | > 30 | > 30 | > 10 | > 10 | > 10 | –
Nc1ncnc2c1ncn2[C@@H]1O[C@H](COP(=O)(O)O)[C@@H](O)[C@H]1O [ADENOSINE PHOSPHATE] | > 30 | > 30 | > 30 | > 30 | 15 | > 30 | > 30 | > 30 | > 30 | –
CN1C(=O)CC(c2ccccc2)C1=O (configuration not stated) [PHENSUXIMIDE] | > 10 | > 10 | > 10 | > 10 | > 30 | > 10 | > 10 | > 10 | > 10 | –
CCC1(C2=CCCCCC2)C(=O)NC(=O)NC1=O [HEPTABARBITAL] | > 10 | > 10 | > 10 | > 10 | > 30 | > 10 | > 10 | > 10 | > 10 | –
CN1CC[C@]23CCCC[C@H]2[C@H]1Cc1ccc(O)cc13 [LEVORPHANOL] | > 10 | > 10 | > 30 | > 10 | 13.4 | > 30 | > 10 | > 10 | > 10 | –
CC(=O)NS(=O)(=O)c1ccc(N)cc1 [SULFACETAMIDE] | > 10 | > 10 | > 10 | > 10 | > 30 | > 10 | > 10 | > 10 | > 10 | –
CC1=CC(=O)c2ccccc2C1=O [MENADIONE] | > 30 | > 10 | 17 | > 10 | > 30 | > 10 | > 30 | > 10 | > 10 | –
TOCOFERSOLAN | > 30 | 4 | > 30 | > 30 | – | > 30 | > 30 | > 30 | > 30 | > 30
C1=Cc2cccc(OCC3CNCCO3)c2C1 (configuration not stated) [INDELOXAZINE] | > 30 | > 30 | > 30 | 17 | > 30 | > 30 | > 30 | > 30 | > 30 | –
O=C(C[S+]([O-])C(c1ccccc1)c1ccccc1)NO (configuration not stated) | > 30 | > 30 | > 30 | > 30 | > 30 | > 30 | > 30 | > 30 | > 30 | –
CN1CCCN=C1COC(=O)C(O)(c1ccccc1)C1CCCCC1 (configuration not stated) [OXYPHENCYCLIMINE] | > 10 | > 10 | > 10 | > 10 | 3.77 | > 10 | > 10 | > 10 | 0.07 | –
